Laboratory results published in EP0237348A1, “Cell protection” (THE WELLCOME FOUNDATION LIMITED, priority 1986, dated 1987).

System: Myocaridal infarct size
Assay: Myocardial infarct size after 90 minute LAD occlusion and reperfusion in anaesthetized dogs (ex vivo TTC / Evans blue dual perfusion)
Parameters: species or system Male beagle dogs
Details: for % Area at Risk * Infarcted: 10 mg/kg intravenously over five minutes beginning fifteen minutes prior to reperfusion, 90 minute LAD occlusion, infarct quantified 24 hours after occlusion, means ± standard error
Method: Male beagle dogs (10-12 kg) were anaesthetized with pentobarbital sodium, intubated, and ventilated with room air via a Harvard respirator. Catheters for infusion and arterial blood pressure measurements were implanted in the left jugular vein and left carotial artery. A thoracotomy was performed at the fourth intercostal space, the heart suspended in a percardial cradle and the left anterior descending artery (LAD) isolated just below the first major diagonal branch. An electromagnetic flow probe was placed on LAD. A 90 minute occlusion of the LAD was produced by placing a snare of 1/0 silk sutre distel to the flow probe. Treatment was initiated intravenously fifteen minutes prior to release of this snare occlusion and continued for 45 minutes after release. The thoracotomy was closed, and the animals were allowed to recover from the surgical procedures. The animals were reanaesthetized 24 hours after the occlusion, and the flow in the LAD reassessed. Then the heart was removed for post mortem quantification of infarct size.
Three groups of dogs were evaluated. Group 1 consisted of saline controls. Group 2 were administered allopurinol and group 3 were administered oxypurinol. Allopurinol and oxypurinol were dissolved, separately, in O.I.N. sodium hydroxide and back-titrated to pH 9.3. The formulations were adminstered intravenously over five minutes beginning fifteen minutes prior to reperfusion.
Myocaridal infarct size was quantified by an ex vivo dual reperfusion technique. Cannulas were inserted into the LAD immediately distel to the site of occlusion and into the aorta above the coronary ostia. The LAD coronary bed that was perfused with 1.5% triphenyl tetrazolium hydrochloride (TTC) in 0.02 M potassium phosphate buffer, pH 7.4. The aorta was perfused in a retrograde manner with 0.5% Evans blue dye. Both regions ere perfused with their respective stains at a constant pressure of 100 mm mercury for five minutes. The heart was cut into 8 mm slices perpendicular to the apex-base axis. The area of the left ventrical at risk of infarction due to aatomical dependence on the LAD for blood flow is identified by the lack of Evans blue in this region. The region of infarcted myocardium within the area was demarcated by the lack of staining of the tissue when perfused with TTC due to a loss of dehydrogenase enzymes.
The transverse ventricular sections were traced carefully on to clear acrylic overlays to provide a permanent record of infarcted methology and to allow planimetric confirmation of infarct size. Ventricular sections then were trimmed of right ventricular muscle, valvular, and fatty tissue. Total left ventricular, area at risk, and infarct was separated by careful dissection and weighted. Infarct size was expressed as a percentage of the anatomic area at risk. […]

Row | Compound | Reduction of area at risk (infarcted) compared with saline and allopurinol (10 mg/kg i.v. fifteen minutes prior to reperfusion, significance criterion p less than 0.05 (ANOVA, Bonferroni)) | % Area at Risk * Infarcted | Reducing cellular injury when administered after ischemia (and before reperfusion) (administered after ischemia and before reperfusion, summary statement)
1 | O=c1[nH]c(=O)c2c[nH]nc2[nH]1 [Oxypurinol, 4,6-dihydroxypyrazola(3,4-d)pyrimidine] | significantly reduced | 19.0 ± 1.7% | effective
2 | Oc1ncnc2[nH]ncc12 [Allopurinol] |  | 43.1 ± 6.1% | 
